Data on eleven compounds can be found in PubChem BioAssay (NCI).

The structures appear in SMILES notation. Where “and” joins values, the source holds several entries; their conditions need not be identical. Identical values can stand only once.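 Assay format: 96-well plates, 48-hour exposure. Abbreviation: GI50, concentration required for 50% inhibition of growth. TGI: total growth inhibition.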 Bounds are passed on as bounds.

Some test systems named below: IGROV1 ovarian; UO-31 renal; U251 CNS; SK-MEL-2 melanoma; SK-MEL-28 melanoma; OVCAR-8 ovarian; HOP-92 NSCLC; SNB-19 CNS; DU-145 prostate; RPMI-8226 leukemia.
Holding throughout (test): growth of human tumour cells (NCI), 48 h

For the compound `CC(C)/C(Cl)=N\OC(=O)Nc1ccc(S(N)(=O)=O)cc1`, the TGI with IGROV1 ovarian is 33.9 µM; with UO-31 renal it was 30.2 µM; in the test on U251 CNS it was 35.7 µM; with SK-MEL-2 melanoma it was 34.1 µM; in the test on SK-MEL-28 melanoma, 31.3 µM; in the test with OVCAR-8 ovarian, 32 µM. Besides, the TGI was 10.1 µM in the test with HOP-92 NSCLC, greater than 78.7 µM with SNB-19 CNS, 31.8 µM in the test on DU-145 prostate and 4.97 µM in the test with RPMI-8226 leukemia.
In the case of `FC(F)(F)c1cc(Cl)cnc1N/N=C(/c1ccccc1)c1ccccn1`, the TGI was 5.59 µM with IGROV1 ovarian; 11.9 µM with UO-31 renal; 41.3 µM in the test with U251 CNS; 20.1 µM with SK-MEL-2 melanoma; greater than 100 µM in the test on SK-MEL-28 melanoma; 5.06 µM in the test with OVCAR-8 ovarian. Further, the TGI with HOP-92 NSCLC is 16.3 µM; in the test with SNB-19 CNS, greater than 100 µM; in the test with DU-145 prostate, greater than 100 µM; in the test with RPMI-8226 leukemia, greater than 100 µM.
As for `C[C@@]12C[C@@H](c3ccccc3O1)N1CCCCSC1=N2`, the TGI in the test with IGROV1 ovarian, in the test on UO-31 renal, in the test on U251 CNS, in the test with SK-MEL-2 melanoma, in the test on SK-MEL-28 melanoma and with OVCAR-8 ovarian was greater than 100 µM throughout. Moreover, the TGI in the test with HOP-92 NSCLC, with SNB-19 CNS, in the test with DU-145 prostate and in the test on RPMI-8226 leukemia was greater than 100 µM in each case.
Regarding `c1ccc(N=C2SC3=Nc4cccc5cccc(c45)N3C2=Nc2ccccc2)cc1`, the TGI in the test with IGROV1 ovarian, in the test on UO-31 renal, in the test with U251 CNS, in the test on SK-MEL-2 melanoma, in the test on SK-MEL-28 melanoma and in the test on OVCAR-8 ovarian was greater than 100 µM throughout. For the same compound, the TGI with HOP-92 NSCLC, in the test on SNB-19 CNS, with DU-145 prostate and in the test on RPMI-8226 leukemia was greater than 100 µM each time.
For the compound `CC1=CC2C(O1)C1C(=O)C=CC(=O)C1=CC2[N+](=O)[O-]` (stereo not drawn), the TGI with IGROV1 ovarian was found to be 44.7 µM; in the test with UO-31 renal, 10.4 µM; in the test on U251 CNS, 36.3 µM; in the test on SK-MEL-2 melanoma, 57.2 µM; in the test with SK-MEL-28 melanoma it was 68.4 µM; in the test with OVCAR-8 ovarian, 60.2 µM. Further, the TGI in the test with HOP-92 NSCLC was 6.2 µM; in the test on SNB-19 CNS, greater than 72.4 µM; with DU-145 prostate, greater than 55.9 µM; in the test on RPMI-8226 leukemia, greater than 100 µM.
As for `O=[N+]([O-])/C(C(Cl)=C(Cl)Cl)=C(\SCc1ccccc1)N1CCCCC1`, the TGI was 57.1 µM with IGROV1 ovarian; 56.5 µM with UO-31 renal; greater than 100 µM with U251 CNS; 55 µM with SK-MEL-2 melanoma; greater than 100 µM in the test with SK-MEL-28 melanoma; 54.5 µM with OVCAR-8 ovarian. Besides, the TGI was 0.529 µM with HOP-92 NSCLC, greater than 100 µM with SNB-19 CNS, greater than 100 µM in the test with DU-145 prostate and 92.9 µM with RPMI-8226 leukemia.
Turning to `COc1cc2c(cc1OC)C(c1ccccc1CCCCl)=NCC2`, the TGI in the test with IGROV1 ovarian is greater than 100 µM; in the test with UO-31 renal, greater than 100 µM; in the test on U251 CNS it was greater than 100 µM; with SK-MEL-2 melanoma, greater than 100 µM; in the test with SK-MEL-28 melanoma it was 49.7 µM; with OVCAR-8 ovarian, greater than 100 µM. For the same compound, the TGI in the test with HOP-92 NSCLC was greater than 100 µM; with SNB-19 CNS, greater than 100 µM; with DU-145 prostate, greater than 100 µM; with RPMI-8226 leukemia, 42 µM.
For `CC(C)CC(=O)OC[n+]1ccc(-c2c(COC(=O)NC(C)C)c(COC(=O)NC(C)C)c3n2CCC3)cc1`, the TGI in the test on IGROV1 ovarian, in the test with UO-31 renal, in the test with U251 CNS, in the test on SK-MEL-2 melanoma, in the test with SK-MEL-28 melanoma and in the test with OVCAR-8 ovarian was greater than 100 µM in each case. Moreover, the TGI with HOP-92 NSCLC, with SNB-19 CNS, with DU-145 prostate and with RPMI-8226 leukemia was greater than 100 µM throughout.
Consider `O=C(NNC(=O)c1ccccc1SSc1ccccc1C(=O)NNC(=O)c1ccccc1S)c1ccccc1S`, for which the TGI in the test on IGROV1 ovarian was greater than 100 µM; in the test with UO-31 renal it was greater than 100 µM; in the test with U251 CNS, greater than 71.9 µM; with SK-MEL-2 melanoma it was greater than 90.5 µM; in the test with SK-MEL-28 melanoma it was greater than 91.7 µM; in the test with OVCAR-8 ovarian, greater than 100 µM. The TGI in the test on HOP-92 NSCLC was greater than 100 µM; with SNB-19 CNS, greater than 100 µM; with DU-145 prostate it was greater than 54.7 µM; with RPMI-8226 leukemia it was greater than 100 µM.
Consider `COc1ccc(C2c3cc4c(cc3OC(NNS(=O)(=O)c3ccc(C)cc3)C2C)OCO4)cc1` (stereo not drawn), for which the TGI in the test with IGROV1 ovarian, in the test with UO-31 renal, with U251 CNS, with SK-MEL-2 melanoma, in the test on SK-MEL-28 melanoma and with OVCAR-8 ovarian was greater than 100 µM throughout. Besides, the TGI was 85.3 µM with HOP-92 NSCLC, greater than 100 µM in the test on SNB-19 CNS, greater than 100 µM in the test with DU-145 prostate and greater than 100 µM in the test on RPMI-8226 leukemia.
With `Cc1c2cnccc2c(C)c2c1c1ccccc1n2CCCN`, the GI50 in the test with IGROV1 ovarian was 0.198 µM; with UO-31 renal, 0.0685 µM; in the test on U251 CNS it was 0.0696 µM; in the test with SK-MEL-2 melanoma, 0.348 µM; with SK-MEL-28 melanoma it was 0.333 µM; with OVCAR-8 ovarian it was 0.205 µM. Further, the figures for the GI50 in the test with HOP-92 NSCLC and with SNB-19 CNS were 0.776 µM and 0.0945 µM, respectively. Besides, the TGI in the test on IGROV1 ovarian was 1.74 µM and 0.973 µM; with UO-31 renal, 1.88 µM and 0.225 µM; in the test on U251 CNS it was 0.911 µM and 0.523 µM; in the test with SK-MEL-2 melanoma, 1.59 µM and 1.42 µM; with SK-MEL-28 melanoma it was 1.98 µM and 1.25 µM; in the test with OVCAR-8 ovarian, 1.41 µM and 1.22 µM. The TGI in the test with HOP-92 NSCLC is 1.22 µM and 2.14 µM; in the test with SNB-19 CNS, 2.19 µM and 0.781 µM; with DU-145 prostate, 0.798 µM; in the test with RPMI-8226 leukemia, 0.671 µM.
